Patent US5326788A, “Biological fluid purification system” (priority 1992, dated 1994)

Columns and labels:
[1] = tested on: HIV-1; assay: Syncytia assay, H9 cells infected with IIIb isolate of HIV co-cultured with Supt-1 cells; format: cell-based; conditions: 24 hours
Experimental: (§1) In order to assess the effects of Hy and Ps on the ability of HIV to form syncytia, the following experiments were performed. For the analysis of HIV-1, an entry syncytia assay was performed by co-culturing H9 cells (described in Popovic, M. et al. Science 224: 497-500, 1984) infected with the IIIb isolate of HIV with uninfected Supt-1 cells (Walker, B. D. et al. Proc. Nat. Acad. Sci. (USA) 84: 8120-8124, 1987) as the target cell. HIV-2 was tested using HUT78 cells (obtained from the National Institute of Health by reference to Depository Catalog, Reagent Program, Bethesda, Md.) infected with the ROD-2 isolate of HIV-2 co-cultured with uninfected H9 target cells. The infected cells were plated in 96 well plates (10^4 cells per well in RPM1 1640 medium with 10% fetal calf serum) and incubated with or without dilutions of Ps or Hy for 30 minutes at 37° C. 1×10^5 target cells were then added per well and the number of syncytia were quantitatively and qualitatively determined after 24 hours.

[2] = tested on: HIV-1 env; assay: Syncytia assay, cell line expressing only envelope proteins of HIV-1 IIIb with Supt-1 cells; format: cell-based; conditions: 24 hours
Experimental: as §1
Also tested in a syncytia assay was a constructed cell line expressing only the envelope proteins of HIV-1 type IIIb isolate (Walker, B. D. et al., supra). These cells, designated HIV-1 env in Table 6, were treated with the indicated concentrations of Ps or Hy and incubated with uninfected Supt-1 target cells as above.

[3] = tested on: HIV; assay: Inhibition of HIV induced syncytia formation / cell fusion (summary over the assays); format: cell-based, Human Immunodeficiency Virus (HIV)
Experimental: as §1

[4] = tested on: HIV; assay: Inactivation of HIV from blood of sero-positive patient, reverse transcriptase activity after culture with H9 cells; format: cell-based, Human Immunodeficiency Virus (HIV); conditions: Human immunodeficiency virus 1, H9, 1 h, read-out: concentration giving complete inactivation of HIV (no reverse transcriptase detected), 1 hour at 37° C., H9 cells
Experimental: In order to show the effectiveness of the compounds of the present invention in the inactivation of HIV, blood was obtained from an HIV sero-positive patient and treated with hypericin and pseudohypericin at various concentrations for 1 hour at 37° C. and incubated with uninfected H9 cells in culture. Thereafter, reverse transcriptase enzymatic activity was determined as disclosed in U.S. patent application Ser. Nos. 084,008 and 172,064 filed Aug. 10, 1987 and Mar. 23, 1988, respectively.
(§2) In FIG. 1, open squares represent hypericin-treated and pluses represent pseudohypericin treated HIV. […] Inactivation of the reverse transcriptase activity of the virions was not a result of a direct inhibition of reverse transcriptase activity per se, as incubation of either compound directly with purified reverse transcriptase from either avian myeloblastosis virus or murine leukemia virus had no effect on enzyme activity. Furthermore, aliquots of HIV derived from these H9 cell cultures lost the ability to replicate in culture when exposed to as little as 0.77 micrograms/ml of hypericin.

[5] = tested on: purified reverse transcriptase from avian myeloblastosis virus; assay: Direct incubation with purified reverse transcriptase; format: biochemical
Experimental: as §2

[6] = target: purified reverse transcriptase from murine leukemia virus (Moloney murine leukemia virus isolate Shinnick, UniProt P03355); assay: as above; format: biochemical
Experimental: as §2

[7] = tested on: HIV-2; assay: Syncytia assay, HUT78 cells infected with ROD-2 isolate co-cultured with H9 cells; format: cell-based; conditions: 24 hours
Experimental: as §1

[8] = tested on: HIV; conditions: cited from earlier work

Cc1cc(O)c2c(=O)c3c(O)cc(O)c4c5c(O)cc(O)c6c(=O)c7c(O)cc(CO)c8c1c2c(c34)c(c65)c78 [pseudohypericin]
effective but at substantially higher: inhibition of cell fusion ([3]; compared with hypericin)
20-60 fold: dose needed for similar inhibition relative to hypericin ([3]; syncytia formation)
3 M: syncytia score (number 0-4, size S/M/L) ([1]; 1500 nanograms) | syncytia score (number 0-4, size S/M/L) ([7]; 750 nanograms)
1S: syncytia score (number 0-4, size S/M/L) ([1]; 3000 nanograms) | syncytia score (number 0-4, size S/M/L) ([2]; 3000 nanograms)
> 100 µg/mL: IC100 [4]
4 L: syncytia score (number 0-4, size S/M/L) ([1]; 12 nanograms) | syncytia score (number 0-4, size S/M/L) ([1]; 24 nanograms) | syncytia score (number 0-4, size S/M/L) ([1]; 47 nanograms) | syncytia score (number 0-4, size S/M/L) ([1]; 94 nanograms) | syncytia score (number 0-4, size S/M/L) ([1]; 188 nanograms) | syncytia score (number 0-4, size S/M/L) ([1]; 375 nanograms) | syncytia score (number 0-4, size S/M/L) ([1]; 750 nanograms) | syncytia score (number 0-4, size S/M/L) ([2]; 12 nanograms) | syncytia score (number 0-4, size S/M/L) ([2]; 24 nanograms) | syncytia score (number 0-4, size S/M/L) ([2]; 47 nanograms) | syncytia score (number 0-4, size S/M/L) ([2]; 94 nanograms) | syncytia score (number 0-4, size S/M/L) ([2]; 188 nanograms) | syncytia score (number 0-4, size S/M/L) ([2]; 375 nanograms) | syncytia score (number 0-4, size S/M/L) ([2]; 750 nanograms) | syncytia score (number 0-4, size S/M/L) ([7]; 12 nanograms) | syncytia score (number 0-4, size S/M/L) ([7]; 24 nanograms) | syncytia score (number 0-4, size S/M/L) ([7]; 47 nanograms) | syncytia score (number 0-4, size S/M/L) ([7]; 94 nanograms) | syncytia score (number 0-4, size S/M/L) ([7]; 188 nanograms) | syncytia score (number 0-4, size S/M/L) ([7]; 375 nanograms)
2S: syncytia score (number 0-4, size S/M/L) ([7]; 1500 nanograms) | syncytia score (number 0-4, size S/M/L) ([7]; 3000 nanograms)
3 L: syncytia score (number 0-4, size S/M/L) ([2]; 1500 nanograms)
no effect: effect on enzyme activity of purified reverse transcriptase [5] | effect on enzyme activity of purified reverse transcriptase [6]

nonylphenoxypolyethoxyethanol [Nonoxynol-9]
> 0.05 % (vol/vol): concentration effective against free virus [8]
